Biological target: human GPR40 (Homo sapiens, UniProt O14842)
Test: FDSS-based intracellular calcium assay (Human GPR40 in vitro assay)
Format: cell-based
Set-up: 3xFLAG; expressed in transfected cells
Settings: intracellular Ca2+ response, cells expressing GPR40; read-out: hGPR40 EC50
Experimental: FDSS-based Intracellular Calcium Assay
Compounds are dissolved in DMSO and diluted to desired concentrations with assay buffer and added to the cells as 3× solution (20 μL per well). Run fluorescence/luminescence reader FDSS (Hamamatsu) to read intracellular Ca^2+ response.

Sequence of human GPR40 (O14842 whole entry): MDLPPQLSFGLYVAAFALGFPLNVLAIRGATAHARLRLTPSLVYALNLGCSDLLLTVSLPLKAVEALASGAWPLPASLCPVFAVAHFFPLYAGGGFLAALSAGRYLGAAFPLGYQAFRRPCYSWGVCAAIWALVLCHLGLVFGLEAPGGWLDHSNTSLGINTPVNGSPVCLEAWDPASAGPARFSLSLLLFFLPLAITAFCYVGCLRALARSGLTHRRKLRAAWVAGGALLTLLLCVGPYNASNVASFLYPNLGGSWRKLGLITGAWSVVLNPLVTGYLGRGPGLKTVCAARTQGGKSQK

Row | Compound | EC50 [nM]
1 | C[C@@H]1C(C(F)(F)F)=NN(c2ccc(OC3CCN(c4nccc(C(F)(F)F)n4)CC3)cc2)[C@H]1CC(=O)O [Example 20, 2-((4S,5S)-4-methyl-3-(trifluoromethyl)-1-(4-((1-(4-(trifluoromethyl)pyrimidin-2-yl)piperidin-4-yl)oxy)phenyl)-4,5-dihydro-1H-pyrazol-5-yl)acetic acid] | 1420
2 | CC1CN(c2cc(OCC(F)(F)F)ccc2F)CCC1Oc1ccc(N2N=C(C(F)(F)F)[C@@H](C)[C@@H]2CC(=O)O)cc1 (stereo partly drawn) [Example 11, 2-((4S,5S)-1-(4-((1-(2-fluoro-5-(2,2,2-trifluoroethoxy)phenyl)-3-methylpiperidin-4-yl)oxy)phenyl)-4-methyl-3-(trifluoromethyl)-4,5-dihydro-1H-pyrazol-5-yl)acetic acid] | 1080
3 | COc1cccc(N2CC(COc3ccc(N4N=C(C(F)(F)F)[C@@H](C)[C@@H]4CC(=O)O)cc3)C2)c1 [Example B32, 2-((4S,5S)-1-(4-((1-(3-Methoxyphenyl)azetidin-3-yl)methoxy)phenyl)-4-methyl-3-(trifluoromethyl)-4,5-dihydro-1H-pyrazol-5-yl)acetic acid] | 1090
4 | CCOc1ccc(F)c(N2CCC(Cc3ccc(N4N=C(C(F)(F)F)[C@@H](C)[C@@H]4CC(=O)O)cc3)C(C)C2)c1 (single isomer, unassigned) [Example 3 (Isomer 4)] | 672
5 | CCOc1ccc(F)c(N2CCC(Oc3ccc(N4N=C(C#N)C(C)C4CC(=O)O)cc3)CC2)c1 (single isomer, unassigned) [Example B5, Isomer 2, 2-(3-cyano-1-(4-((1-(5-ethoxy-2-fluorophenyl)piperidin-4-yl)oxy)phenyl)-4-methyl-4,5-dihydro-1H-pyrazol-5-yl)acetic acid] | 4950
6 | CCOc1ccc(F)c(N2CCC(Oc3ccc(N4N=C(C#N)C(C)C4CC(=O)O)cc3)C(C)C2)c1 (single isomer, unassigned) [Example B7, Isomer 2, 2-(3-Cyano-1-(4-((1-(5-ethoxy-2-fluorophenyl)-3-methylpiperidin-4-yl)oxy)phenyl)-4-methyl-4,5-dihydro-1H-pyrazol-5-yl)acetic acid] | 5790
7 | C[C@@H]1C(C(F)(F)F)=NN(c2ccc(OC3CCN(S(=O)(=O)C4CCCC4)CC3)cc2)[C@H]1CC(=O)O [Example B24, 2-((4S,5S)-1-(4-((1-(Cyclopentylsulfonyl)piperidin-4-yl)oxy)phenyl)-4-methyl-3-(trifluoromethyl)-4,5-dihydro-1H-pyrazol-5-yl)acetic acid] | 3600
8 | CCOc1ccc(F)c(N2CCC(Oc3ccc(N4N=C(c5ccc(C(=O)O)cc5F)[C@@H](C)[C@@H]4CC(=O)O)cc3)CC2)c1 [Example B4, 4-((4S,5S)-5-(carboxymethyl)-1-(4-((1-(5-ethoxy-2-fluorophenyl)piperidin-4-yl)oxy)phenyl)-4-methyl-4,5-dihydro-1H-pyrazol-3-yl)-3-fluorobenzoic acid] | 4950
9 | C[C@@H]1C(C(F)(F)F)=NN(c2ccc(OC3CCN(S(=O)(=O)c4ccccc4C(F)(F)F)CC3)cc2)[C@H]1CC(=O)O [Example B25, 2-((4S,5S)-4-Methyl-3-(trifluoromethyl)-1-(4-((1-((2-(trifluoromethyl)phenyl)sulfonyl)piperidin-4-yl)oxy)phenyl)-4,5-dihydro-1H-pyrazol-5-yl)acetic acid] | 4420
10 | COc1cc(N2CCC(Cc3ccc(N4N=C(C(F)(F)F)[C@@H](C)[C@@H]4CC(=O)O)cc3)CC2)c(Cl)cn1 [Example B10, 2-((4S,5S)-1-(4-((1-(5-chloro-2-methoxypyridin-4-yl)piperidin-4-yl)methyl)phenyl)-4-methyl-3-(trifluoromethyl)-4,5-dihydro-1H-pyrazol-5-yl)acetic acid] | 517
11 | CCOc1ccc(F)c(N2CCC(Oc3ccc(N4N=C(c5ccc(C#N)c(C#N)c5)[C@@H](C)[C@@H]4CC(=O)O)cc3)CC2)c1 [Example 96, 2-((4S,5S)-3-(3,4-dicyanophenyl)-1-(4-((1-(5-ethoxy-2-fluorophenyl)piperidin-4-yl)oxy)phenyl)-4-methyl-4,5-dihydro-1H-pyrazol-5-yl)acetic acid] | 1570
12 | COc1cccc(N2CCC(Cc3ccc(N4N=C(C(F)(F)F)[C@@H](C)[C@@H]4CC(=O)O)cc3)CC2)c1 [Example B8, 2-((4S,5S)-1-(4-((1-(3-methoxyphenyl)piperidin-4-yl)methyl)phenyl)-4-methyl-3-(trifluoromethyl)-4,5-dihydro-1H-pyrazol-5-yl)acetic acid] | 761
13 | C[C@@H]1C(C(F)(F)F)=NN(c2ccc(OC3CCN(c4cccc5c4OCCO5)CC3)cc2)[C@H]1CC(=O)O [Example B19, 2-((4S,5S)-1-(4-((1-(2,3-Dihydrobenzo[b][1,4]dioxin-5-yl)piperidin-4-yl)oxy)phenyl)-4-methyl-3-(trifluoromethyl)-4,5-dihydro-1H-pyrazol-5-yl)acetic acid] | 6200
14 | CCCc1cnc(N2CCC(Oc3ccc(N4N=C(C(F)(F)F)[C@@H](C)[C@@H]4CC(=O)O)cc3)CC2)nc1 [Example 5, 2-((4S,5S)-4-methyl-1-(4-((1-(5-propylpyrimidin-2-yl)piperidin-4-yl)oxy)phenyl)-3-(trifluoromethyl)-4,5-dihydro-1H-pyrazol-5-yl)acetic acid] | 5810
15 | COc1ccnc(N2CCC(Oc3ccc(N4N=C(C(F)(F)F)[C@@H](C)[C@@H]4CC(=O)O)cc3)CC2)n1 [Example B28, 2-((4S,5S)-1-(4-((1-(4-methoxypyrimidin-2-yl)piperidin-4-yl)oxy)phenyl)-4-methyl-3-(trifluoromethyl)-4,5-dihydro-1H-pyrazol-5-yl)acetic acid] | 5270
16 | C[C@@H]1C(C(F)(F)F)=NN(c2ccc(OC3CCN(c4cc(-n5cccn5)ccc4F)CC3)cc2)[C@H]1CC(=O)O [Example B20, 2-((4S,5S)-1-(4-((1-(2-Fluoro-5-(1H-pyrazol-1-yl)phenyl)piperidin-4-yl)oxy)phenyl)-4-methyl-3-(trifluoromethyl)-4,5-dihydro-1H-pyrazol-5-yl)acetic acid] | 4590
17 | COCC1CN(c2cc(OC)ncc2Cl)CCC1Oc1ccc(N2N=C(C(F)(F)F)[C@@H](C)[C@@H]2CC(=O)O)cc1 (single isomer, unassigned) [Example B3, Isomer 1] | 352
18 | C[C@@H]1C(C(F)(F)F)=NN(c2ccc(OC3CCN(c4cc5c(cc4Cl)CCO5)CC3)cc2)[C@H]1CC(=O)O [Example 4, 2-((4S,5S)-1-(4-((1-(5-chloro-2,3-dihydrobenzofuran-6-yl)piperidin-4-yl)oxy)phenyl)-4-methyl-3-(trifluoromethyl)-4,5-dihydro-1H-pyrazol-5-yl)acetic acid] | 1040
19 | C[C@@H]1C(C(F)(F)F)=NN(c2ccc(OC3CCN(c4cc5c(cc4Cl)OCCO5)CC3)cc2)[C@H]1CC(=O)O [Example B15, 2-((4S,5S)-1-(4-((1-(7-Chloro-2,3-dihydrobenzo[b][1,4]dioxin-6-yl)piperidin-4-yl)oxy)phenyl)-4-methyl-3-(trifluoromethyl)-4,5-dihydro-1H-pyrazol-5-yl)acetic acid] | 325
20 | COc1nc(N2CCC(Oc3ccc(N4N=C(C(F)(F)F)[C@@H](C)[C@@H]4CC(=O)O)cc3)CC2)ncc1F [Example B29, 2-((4S,5S)-1-(4-((1-(5-Fluoro-4-methoxypyrimidin-2-yl)piperidin-4-yl)oxy)phenyl)-4-methyl-3-(trifluoromethyl)-4,5-dihydro-1H-pyrazol-5-yl)acetic acid] | 3680
21 | COc1ccc(F)c(N2CCC(Cc3ccc(N4N=C(C(F)(F)F)[C@@H](C)[C@@H]4CC(=O)O)cc3)CC2)c1 [Example 100, 2-((4S,5S)-1-(4-((1-(2-fluoro-5-methoxyphenyl)piperidin-4-yl)methyl)phenyl)-4-methyl-3-(trifluoromethyl)-4,5-dihydro-1H-pyrazol-5-yl)acetic acid] | 266
22 | COc1cc(N2CCC(Oc3ccc(N4N=C(C(F)(F)F)[C@@H](C)[C@@H]4CC(=O)O)cc3)C3(CC3)C2)c(Cl)cn1 (stereo partly drawn) [Example B37, 2-((4S,5S)-1-(4-((5-(5-chloro-2-methoxypyridin-4-yl)-5-azaspiro[2.5]octan-8-yl)oxy)phenyl)-4-methyl-3-(trifluoromethyl)-4,5-dihydro-1H-pyrazol-5-yl)acetic acid] | 774
23 | COc1ccc(F)c(N2CC(COc3ccc(N4N=C(C(F)(F)F)[C@@H](C)[C@@H]4CC(=O)O)cc3)C2)c1 [Example B35, 2-((4S,5S)-1-(4-((1-(2-fluoro-5-methoxyphenyl)azetidin-3-yl)methoxy)phenyl)-4-methyl-3-(trifluoromethyl)-4,5-dihydro-1H-pyrazol-5-yl)acetic acid] | 4760
24 | C[C@@H]1C(C(F)(F)F)=NN(c2ccc(OC3CCN(c4cc(-c5ncco5)ccc4F)CC3)cc2)[C@H]1CC(=O)O [Example B17, 2-((4S,5S)-1-(4-((1-(2-Fluoro-5-(oxazol-2-yl)phenyl)piperidin-4-yl)oxy)phenyl)-4-methyl-3-(trifluoromethyl)-4,5-dihydro-1H-pyrazol-5-yl)acetic acid] | 2490
25 | COc1ccc(F)c(N2C(=O)[C@H]3C[C@@H]2CC3Oc2ccc(N3N=C(C(F)(F)F)[C@@H](C)[C@@H]3CC(=O)O)cc2)c1 (stereo partly drawn) [Example 67, 2-((4S,5S)-1-(4-(((1R,4S)-2-(2-fluoro-5-methoxyphenyl)-3-oxo-2-azabicyclo[2.2.1]heptan-5-yl)oxy)phenyl)-4-methyl-3-(trifluoromethyl)-4,5-dihydro-1H-pyrazol-5-yl)acetic acid] | 6410
26 | C[C@@H]1C(C(F)(F)F)=NN(c2ccc(OCC3CN(C(=O)OC(C)(C)C)C3)cc2)[C@H]1CC(=O)O [Example B30, 2-((4S,5S)-1-(4-((1-(tert-Butoxycarbonyl)azetidin-3-yl)methoxy)phenyl)-4-methyl-3-(trifluoromethyl)-4,5-dihydro-1H-pyrazol-5-yl)acetic acid] | 2770

— US9604964B2, “Dihydropyrazole GPR40 modulators” (BRISTOL-MYERS SQUIBB COMPANY, priority 2012, dated 2017)
